Assay results published in patent publication US5308606A, “Method of treating and/or diagnosing soft tissue tumors” (priority 1991, dated 1994).
Several values for one entry are separate records, joined by “and”; a condition that tells them apart may be missing. Equal values may be shown once. Read-outs that look alike come from different tables or passages of the source. Values belong to the compound of their own block, whether it stands above or below them.

Columns and labels:
[1] = system: liver; conditions: in vivo; cited from earlier work
[2] = in vivo; cited from earlier work
[3] = Whole body retention in miniature pigs having naturally occurring melanomic lesions
Description: (§1) Studies to determine the qualitative biodistribution of the various radionuclides were conducted by injecting the compositions into miniature pigs having melanotic lesions, which occur spontaneously. ^67 Ga-citrate was used as the control and was given by the same route of administration as the test samples.
Each injected solution was from 0.5-1 mL having 1-2 mCi of ^153 Sm present. Each pig had whole body counts immediately after injection and again at 24, 48 and 72 hours.
(§2) Images of each pig (right lateral, left lateral and dorsal) were taken at 4, 24, 48 and 72 hours. The 24 hour images were evaluated independently by 3 investigators using the following scheme for the uptake of ^153 Sm in various tissues:

[4] = system: non-target tissues; conditions: in vivo; cited from earlier work
[5] = system: liver; assay: Liver uptake, scored from images of miniature pigs by 3 investigators
Description: as §1
(§3) Each injected solution was from 0.5-1 mL having 1-2 mCi of ^153 Sm present.
as §2
1=Slight uptake (negligible)
2=Moderate uptake (intermediate)
(§4) The tissues evaluated were bone, liver and tumor.

[6] = system: tumor; assay: Tumor uptake, scored from images of miniature pigs having melanomic lesions by 3 investigators; conditions: for Tumor Uptake (Location): average score (0-3) of 3 investigators
Description: as §1, §3, §2
1=Slight uptake (negligible)
2=Moderate uptake (intermediate)
as §4

[7] = in vivo; cited from earlier work; remark: listed apart in the source
[8] = system: bone; assay: Bone uptake, scored from images of miniature pigs by 3 investigators; conditions: average score (0-3) of 3 investigators; head 72 hr, text 24 hour images; one value per pig
Description: as §1, §3, §2
1=Slight uptake (negligible)
2=Moderate uptake (intermediate)
as §4

[9] = system: Ehrlich tumors; conditions: animals bearing Ehrlich tumors; cited from earlier work
[10] = system: bone; conditions: pig, in vivo
Description: as §1, §3, §2
1=Slight uptake (negligible)
2=Moderate uptake (intermediate)
as §4

[11] = system: liver; conditions: pig, in vivo
Description: as §1, §3, §2
1=Slight uptake (negligible)
2=Moderate uptake (intermediate)
as §4

Compound: ^153 Sm-citrate
- liver uptake [1]: high liver uptake

Compound: O=C([O-])CN(CCN(CC(=O)[O-])CC(=O)[O-])CCN(CC(=O)[O-])CC(=O)[O-].[99Tc+4] [^99m Tc-DTPA]
- elimination of the radionuclide [2]: eliminated from the body by the kidneys into the urine
- tissue localization of the radionuclide [2]: does not result in the radionuclide localizing in any tissue

- clearance of the extra-cellular fluid ([3]; in words): never cleared the extra-cellular fluid
- Liver Uptake (72 hrs) ([5]; average score (0-3) of 3 investigators, head 72 hrs, text 24 hour images, one value per pig): 3.00
- liver uptake ([5]; miniature pigs, in words): unacceptably large liver uptake
- Tumor Uptake (Location) ([6]; Draining node): 1.67
- Tumor Uptake (Location) ([6]; Left head): 3.00
- Tumor Uptake (Location) ([6]; Left sacrum): 0.00
- Tumor Uptake (Location) ([6]; Right head): 0.33
- Tumor Uptake (Location) ([6]; Right stifle): 2.00
- Tumor Uptake (Location) ([6]; Right thorax): 3.00
- Bone Uptake (72 hr) [8]: 1.00
Compound: O=C([O-])CC(O)(CC(=O)[O-])C(=O)[O-].[67Ga+3] [B]
- % Whole Body Retention (72 hrs.) ([3]; 72 hrs, L/M ratio 20 (A), 257 (1), one value per pig): 98.5 % of injected dose and 96.7 % of injected dose and 97.1 % of injected dose
- uptake in non-target tissues [4]: high uptake
- tumor image ([6]; miniature pigs, relative to background radiation): almost indistinguishable from the high background radiation
- rate of blood clearance [7]: slow

Compound: ^99m Tc-ethylenediaminediacetic acid
- imaging of tumors [9]: could be used to image tumors

Compound: [Cl][153Sm]([Cl])[Cl] [^153 Sm-chloride]
- liver uptake [1]: high liver uptake

- Bone Uptake (72 hr) [10]: 3.00
- Liver Uptake (72 hrs) [11]: 1.00
Compound: CC(=O)Nc1cc(CN(CC(=O)O)CC(=O)O)c(O)c(CN(CC(=O)O)CC(=O)O)c1.[153Sm+3] [Example 1]
